Experimental data as given in ChEMBL document CHEMBL1629673, “Role of known molecular markers of resistance in the antimalarial potency of piperaquine and dihydroartemisinin in vitro” (Antimicrob Agents Chemother, 2009).

Legend:
Plasmodium falciparum [1] = assay: Antiplasmodial activity against chloroquine-resistant Plasmodium falciparum K1 infected in erythrocytes assessed as [3H]hypoxanthine incorporation in presence of piperaquine; assay type: functional
Plasmodium falciparum [2] = assay: Antiplasmodial activity against chloroquine-resistant Plasmodium falciparum TM6 infected in erythrocytes assessed as [3H]hypoxanthine incorporation in presence of piperaquine; assay type: functional
Plasmodium falciparum [3] = assay: Antiplasmodial activity against chloroquine-resistant Plasmodium falciparum 7G8 infected in erythrocytes assessed as [3H]hypoxanthine incorporation in presence of piperaquine; assay type: functional
Plasmodium falciparum [4] = assay: Antiplasmodial activity against chloroquine-sensitive Plasmodium falciparum 3D7 infected in erythrocytes assessed as [3H]hypoxanthine incorporation in presence of piperaquine; assay type: functional
Plasmodium falciparum [5] = assay: Antiplasmodial activity against chloroquine-resistant Plasmodium falciparum C6harboring 7G8 pfcrt allele infected in erythrocytes assessed as [3H]hypoxanthine incorporation in presence of piperaquine; assay type: functional, C6
Plasmodium falciparum [6] = assay: Antiplasmodial activity against chloroquine-sensitive Plasmodium falciparum D10 harboring 7G8 pfcrt allele infected in erythrocytes assessed as [3H]hypoxanthine incorporation in presence of piperaquine; assay type: functional
Plasmodium falciparum [7] = assay: Antiplasmodial activity against chloroquine-resistant Plasmodium falciparum 7G8 harboring parental pfcrt allele infected in erythrocytes assessed as [3H]hypoxanthine incorporation in presence of piperaquine; assay type: functional
Plasmodium falciparum [8] = assay: Antiplasmodial activity against chloroquine-resistant Plasmodium falciparum 7G8 harboring D10 pfcrt allele infected in erythrocytes assessed as [3H]hypoxanthine incorporation in presence of piperaquine; assay type: functional
Plasmodium falciparum [9] = assay: microbe, parasite or virus in culture; conditions: K1, 3 h
Plasmodium falciparum [10] = assay: microbe, parasite or virus in culture; conditions: TM6, 3 h
Plasmodium falciparum [11] = assay: microbe, parasite or virus in culture; conditions: 7G8, 3 h
Plasmodium falciparum [12] = assay: microbe, parasite or virus in culture; conditions: 3D7, 3 h
Plasmodium falciparum [13] = assay: microbe, parasite or virus in culture; conditions: C2, 3 h
Plasmodium falciparum [14] = assay: microbe, parasite or virus in culture; conditions: C3, 3 h
Plasmodium falciparum [15] = assay: microbe, parasite or virus in culture; conditions: C6, 3 h
Plasmodium falciparum [16] = assay: microbe, parasite or virus in culture; conditions: D10, 3 h
Plasmodium falciparum [17] = assay: microbe, parasite or virus in culture; conditions: D10, 3 h; remark: listed apart in the source
Plasmodium falciparum [18] = assay: microbe, parasite or virus in culture; conditions: 7G8, 3 h; remark: listed apart in the source
Plasmodium falciparum [19] = assay: microbe, parasite or virus in culture; conditions: 7G8, 3 h; remark: listed apart in the source
Plasmodium falciparum [20] = assay: Antiplasmodial activity against chloroquine-resistant Plasmodium falciparum K1 infected in erythrocytes assessed as [3H]hypoxanthine incorporation in presence of dihydroartimisinin; assay type: functional
Plasmodium falciparum [21] = assay: Antiplasmodial activity against chloroquine-resistant Plasmodium falciparum TM6 infected in erythrocytes assessed as [3H]hypoxanthine incorporation in presence of dihydroartimisinin; assay type: functional
Plasmodium falciparum [22] = assay: Antiplasmodial activity against chloroquine-resistant Plasmodium falciparum 7G8 infected in erythrocytes assessed as [3H]hypoxanthine incorporation in presence of dihydroartimisinin; assay type: functional
Plasmodium falciparum [23] = assay: Antiplasmodial activity against chloroquine-sensitive Plasmodium falciparum 3D7 infected in erythrocytes assessed as [3H]hypoxanthine incorporation in presence of dihydroartimisinin; assay type: functional
Plasmodium falciparum [24] = assay: Antiplasmodial activity against chloroquine-sensitive Plasmodium falciparum C2 infected in erythrocytes assessed as [3H]hypoxanthine incorporation in presence of dihydroartimisinin; assay type: functional
Plasmodium falciparum [25] = assay: Antiplasmodial activity against chloroquine-resistant Plasmodium falciparum C3 harboring Dd2 pfcrt allele infected in erythrocytes assessed as [3H]hypoxanthine incorporation in presence of dihydroartimisinin; assay type: functional
Plasmodium falciparum [26] = assay: Antiplasmodial activity against chloroquine-resistant Plasmodium falciparum C6harboring 7G8 pfcrt allele infected in erythrocytes assessed as [3H]hypoxanthine incorporation in presence of dihydroartimisinin; assay type: functional, C6
Plasmodium falciparum [27] = assay: Antiplasmodial activity against chloroquine-sensitive Plasmodium falciparum D10 infected in erythrocytes assessed as [3H]hypoxanthine incorporation in presence of dihydroartimisinin; assay type: functional
Plasmodium falciparum [28] = assay: Antiplasmodial activity against chloroquine-sensitive Plasmodium falciparum D10 harboring 7G8 pfcrt allele infected in erythrocytes assessed as [3H]hypoxanthine incorporation in presence of dihydroartimisinin; assay type: functional
Plasmodium falciparum [29] = assay: Antiplasmodial activity against chloroquine-resistant Plasmodium falciparum 7G8 harboring parental pfcrt allele infected in erythrocytes assessed as [3H]hypoxanthine incorporation in presence of dihydroartimisinin; assay type: functional
Plasmodium falciparum [30] = assay: Antiplasmodial activity against chloroquine-resistant Plasmodium falciparum 7G8 harboring D10 pfcrt allele infected in erythrocytes assessed as [3H]hypoxanthine incorporation in presence of dihydroartimisinin; assay type: functional
Plasmodium falciparum [31] = assay: Selectivity ratio of IC50 for chloroquine-resistant Plasmodium falciparum C3 harboring Dd2 pfcrt allele to IC50 for chloroquine-sensitive Plasmodium falciparum C2; assay type: functional

**Q.** What does the source list for `C[C@H]1[C@@H](O)O[C@@H]2O[C@@]3(C)CC[C@H]4[C@H](C)CC[C@@H]1[C@@]24OO3` [ARTENIMOL]?
**A.** fractional inhibitory concentration index (FICI) (Plasmodium falciparum [1]): 1.27; fractional inhibitory concentration index (FICI) (Plasmodium falciparum [2]): 1.25; fractional inhibitory concentration index (FICI) (Plasmodium falciparum [3]): 2.86; fractional inhibitory concentration index (FICI) (Plasmodium falciparum [4]): 2.4; fractional inhibitory concentration index (FICI) (Plasmodium falciparum [5]): 2.51; fractional inhibitory concentration index (FICI) (Plasmodium falciparum [6]): 1.34; fractional inhibitory concentration index (FICI) (Plasmodium falciparum [7]): 0.8; fractional inhibitory concentration index (FICI) (Plasmodium falciparum [8]): 1.34; IC50 (Plasmodium falciparum [9]): 1 nM; IC50 (Plasmodium falciparum [10]): 1 nM; IC50 (Plasmodium falciparum [11]): 1.3 nM; IC50 (Plasmodium falciparum [12]): 0.6 nM; IC50 (Plasmodium falciparum [13]): 0.8 nM; IC50 (Plasmodium falciparum [14]): 1 nM; IC50 (Plasmodium falciparum [15]): 0.3 nM; IC50 (Plasmodium falciparum [16]): 0.7 nM; IC50 (Plasmodium falciparum [17]): 0.7 nM; IC50 (Plasmodium falciparum [18]): 0.6 nM; IC50 (Plasmodium falciparum [19]): 1.3 nM

**Q.** What does the source list for `Clc1ccc2c(N3CCN(CCCN4CCN(c5ccnc6cc(Cl)ccc56)CC4)CC3)ccnc2c1` [PIPERAQUINE]?
**A.** fractional inhibitory concentration index (FICI) (Plasmodium falciparum [20]): 1.27; fractional inhibitory concentration index (FICI) (Plasmodium falciparum [21]): 1.25; fractional inhibitory concentration index (FICI) (Plasmodium falciparum [22]): 2.86; fractional inhibitory concentration index (FICI) (Plasmodium falciparum [23]): 2.4; fractional inhibitory concentration index (FICI) (Plasmodium falciparum [24]): 1.59; fractional inhibitory concentration index (FICI) (Plasmodium falciparum [25]): 1.7; fractional inhibitory concentration index (FICI) (Plasmodium falciparum [26]): 2.51; fractional inhibitory concentration index (FICI) (Plasmodium falciparum [27]): 1.48; fractional inhibitory concentration index (FICI) (Plasmodium falciparum [28]): 1.34; fractional inhibitory concentration index (FICI) (Plasmodium falciparum [29]): 0.8; fractional inhibitory concentration index (FICI) (Plasmodium falciparum [30]): 1.34; fold change (FC) (Plasmodium falciparum [31]): 3; IC50 (Plasmodium falciparum [9]): 13.4 nM; IC50 (Plasmodium falciparum [10]): 15.8 nM; IC50 (Plasmodium falciparum [11]): 11.2 nM; IC50 (Plasmodium falciparum [12]): 3.4 nM; IC50 (Plasmodium falciparum [13]): 3.9 nM; IC50 (Plasmodium falciparum [14]): 11.5 nM; IC50 (Plasmodium falciparum [15]): 6.6 nM; IC50 (Plasmodium falciparum [16]): 8.1 nM; IC50 (Plasmodium falciparum [18]): 9.1 nM; IC50 (Plasmodium falciparum [19]): 12 nM
